Measured values published in article PMC2009656 (British Journal of Cancer, 1978).

Assays:
[1] = tested on: isolated liver rough endoplasmic reticulum (RER); format: biochemical, rat
[2] = tested on: isolated liver rough endoplasmic reticulum (RER); format: biochemical, rat; remark: listed apart in the source

Row | Molecule | Degranulation (%) [1] | degranulation obtained from RNA/protein ratios [2]
1 | ClCOCCl [Bis(Chloromethyl)ether] | 47. % | 
2 | NN [Hydrazine] | 2 - 4% | 
3 | CCC1(c2ccccc2)C(=O)NC(=O)NC1=O [Phenobarbital] | 0-6% | 
4 | Aflatoxin B1 | 1-3% | 
5 | EDTA |  | 59.8%
